The numbers were not newly measured in patent publication US8759404B2, “Intravenous propofol emulsion compositions having preservative efficacy” (Bharat Serums & Vaccines Ltd., priority 2005, dated 2014), which cites them from elsewhere.

SMILES strings stand for the structures.

Regarding `CCCCCCCCCCCC(=O)OCC(O)CO` (stereo not shown) [Monolaurin, monoglyceryl ester of lauric acid], in the data set with rats (administered orally), the LD50 result was “about 53,000 mg/kg body weight”. Also, the “solubility in aqueous media” value (aqueous media) is “insoluble”. Besides, for the setting “chloroform, benzene, ethanol, or acetone”, the “solubility in fat solvents” value is “highly soluble”.
As to `CCCCCCCCCC(=O)O` [Capric acid, Decanoic acid], the “Oral LD50 in rats” value in the data set on rats (oral) is “more than 10,000 mg/kg”.
